Measurements: US20200354426A1 (MEDIMMUNE LIMITED, priority 2016, published 2020)
Numbered stars: 1 amine (or outer) side, 2 acyl side, 3 side chain; on linkers, the order of the positions; unused ones are H or OH. Side chains are listed from the residue outwards. Peptide text beside a SMILES is read from it. * marks the point of attachment. γGlu = O=C(O)[C@H](CCC(=O)[*:2])N[*:1]; Palmitoyl = CCCCCCCCCCCCCCCC(=O)*

How the values were obtained:
[1] = system: overweight or obese subjects with type 2 diabetes mellitus; test: Phase 1/2 multiple-ascending-dose study of G933, Cohorts 1-6 (efficacy, PK, safety); type: in vivo, human
From the text: Approximately 75 overweight or obese subjects with relatively well controlled type 2 diabetes mellitus (T2DM) are enrolled to participate in the study. The enrolled subjects meet the following inclusion and exclusion criteria.
Exclusion Criteria: • Any condition that would interfere with evaluations of the investigational product or interpretation of subject safety or study results. […] Patients who utilize benzodiazepines for chronic anxiety or sleep disorders may be permitted to enter the study; • History of severe allergy/hypersensitivity or ongoing clinically important allergy/hypersensitivity; • Whole blood or red blood cell donation, or any blood loss >500 mL during the 2 months prior to screening; • Received another new chemical entity (defined as a compound that has not been approved for marketing), or has participated in any other clinical study that included drug treatment within at least 30 days or 5 half-lives prior to the first administration of investigational product in this study (whichever is longer). The period of exclusion to begin 30 days or 5 half-lives of investigational product after the final dose, or after the last visit, whichever is longest.
Part A consists of 3 cohorts.
Part B consists of 1 cohort.
The initial dose is 100 μg.
Approximately 32 overweight or obese subjects with relatively well controlled type 2 diabetes mellitus (T2DM) are enrolled to participate in the study. The enrolled subjects meet the inclusion and exclusion criteria described in Example 5 with the following exceptions:
Inclusion Criteria: • Cohort 5 and 6 subjects must be willing and able to self-administer daily subcutaneous (SC) injections following an initial self-injection of placebo (or normal saline) during the screening period.
Exclusion Criteria: • Abnormal vital signs, after 10 minutes of supine rest, are defined as any of the following: (a) If systolic BP<90 mm Hg or ≥140 mm Hg; (b) Diastolic BP<50 mm Hg or ≥90 mm Hg; or (c) HR<45 or >85 bpm; • Unstable angina pectoris or stable angina pectoris classified higher than Canadian Cardiovascular Society class II or any previous medical history of myocardial infarction or stroke, or a history of a transient ischemic attack within the prior 12 months.
A randomized, double-blind, multiple-ascending dose study is performed. This study consists of 2 cohorts: cohort 5 and cohort 6. […] Cohorts 5 and 6 have approximately 32 subjects total and are run in parallel.
The study consists of an inpatient up-titration evaluation period beginning on Day 3 for both Cohorts 5 and 6 and an outpatient follow-up period. The first 4 days and the final day of dosing at 300 μg […].
Subjects are admitted to the clinic as described in Example 5 for Cohorts 1-4. […] Subjects have a second inpatient period for the initiation of the 300 μg dose ending on the fourth day at that dose followed by at-home self administration.
Additional time points include before commencing the 300 μg dose (Day 16 for Cohort 5 and Day 11 for Cohort 6) and at the end of dosing (Day 22 for Cohort 5 and Day 17 for Cohort 6). The MMT are performed as described in Example 5.

[2] = Stability testing of peptides in plasma; type: in vitro ADME, human
Procedure: The stability in plasma of the peptideS […], […], […] and […] was determined as follows. […] The spiked plasma samples were gently mixed and allowed to equilibrate for about 5 minutes before start of experiment. The plasma samples were incubated for 48 hours in a GalaxyR CO2 incubator at 37° C. […] The samples were stored at -70° C. until analysis. Plasma samples were assayed as follows. […] After mixing and centrifugation, 100 μl the supernatant was transferred to a new plate and 1 μl was injected onto an analytical column. The analysis was performed using a μLC-system ([…]) coupled to a medium high resolution mass spectrometer (Perkin Elmer PenTOF) with positive electrospray ionisation. […] Flow: 0.1 ml/min using a slow reversed phase gradient. […] Cleavage products arise from the action of the protease DPP IV in plasma. Both the degradation of the peptides and formation of peptide products were reported in percentage of the initial peptide concentration. Peaks were integrated and % remaining peptide was calculated: […] Levels of deamidation and DPP IV cleavage were low for […] and […].

[3] = Cohort 4, after 41 days, p<0.001

L-Histidyl-L-seryl-L-glutaminylglycyl-L-threonyl-L-phenylalanyl-L-threonyl-L-seryl-L-alpha-aspartyl-(N6-[N-(1-oxohexadecyl)-L-gamma-gutamyl])L-lysy-L-sery-L-alpha-glutamyl-L-tyrosyl-L-leucyl-L-alpha-aspartyl-L-seryl-L-alpha-glutamyl-L-arginyl-L-alanyl-L-arginyl-L-alpha-L-aspartyl-L-phenylalanyl-L-valyl-L-alanyl-L-tryptophyl-L-leucyl-L-alpha-glutamyl-L-alanylglycylglycine [Peptide G933]
Fasting Glucose (change) ([1]; Cohort 1, 100 ug, n = 6): -28.00 mg/dL
Weight (change) ([1]; Cohort 1, 100 ug, n = 6): -1.1 kg
Fasting Glucose (change) ([1]; Cohort 2, 150 ug, n = 6): -17.90 mg/dL
Weight (change) ([1]; Cohort 2, 150 ug, n = 6): -0.5 kg
weight differential ([1]; Cohort 3 (up to 200 μg, 15 days)): more than 2 kg
Fasting Glucose (change) ([1]; Cohort 3, 200 ug, n = 6): -43.20 mg/dL
Weight (change) ([1]; Cohort 3, 200 ug, n = 6): -2.4 kg
Fasting Glucose (change) ([1]; Cohort 4, 200 ug, n = 25): -32.62 mg/dL
Weight (change) ([1]; Cohort 4, 200 ug, n = 25): -2.11 kg
patients who lost at least 2% of their weight ([1]; Cohort 4, after 41 days): 84%
patients who lost at least 5 kg ([1]; Cohort 4, after 41 days): 44%
percent of weight lost ([1]; Cohort 4, after 41 days): about 4.18%
weight lost ([1]; Cohort 4, after 41 days): about 3.83 kg
HbA1c reduction ([1]; Cohort 4, after 41 days of treatment): 0.92%
percent weight loss difference between G933 and placebo [1, 3]: 2.47%
weight loss difference between G933 and placebo [1, 3]: 2.12 kg
mean reduction in glucose AUC from baseline (day 1) to day 41 ([1]; Cohort 4, up to 200 μg, 90% C.I. −47.1, −29.0): 38.5%
mean relative reduction in liver fat percentage from baseline versus placebo ([1]; Cohort 4, 95% CI 7.2, 33.9, p=0.004): 20.5%
reduction in liver volume compared to placebo ([1]; Cohort 4, (−0.24, −0.03), p=0.01): 0.14 L
mean HbA1c on day 42 ([1]; Cohort 4, baseline mean […]): 6.3%
glucose AUC reduction ([1]; Cohort 5 (up to 300 μg, 22 days), 90% C.I. −49.9, −33.5): 41.7%
Fasting Glucose (change) ([1]; Cohort 5, 300 ug, n = 12): -24.40 mg/dL
Weight (change) ([1]; Cohort 5, 300 ug, n = 12): -2.11 kg
weight loss difference versus placebo ([1]; Cohort 5, after 22 days): 2.11 kg
weight lost ([1]; Cohort 5, after 22 days): about 3.09 kg
glucose AUC reduction ([1]; Cohort 6 (up to 300 μg, 17 days), C.I. −43.3, −28.3): 35.8%
Fasting Glucose (change) ([1]; Cohort 6, 300 ug, n = 12): -36.94 mg/dL
Weight (change) ([1]; Cohort 6, 300 ug, n = 12): -1.88 kg
weight loss difference versus placebo ([1]; Cohort 6, after 17 days): 1.88 kg
weight lost ([1]; Cohort 6, after 17 days): about 2.23 kg
mixed-meal test glucose AUC reduction ([1]; Cohorts 1-3 (100-200 μg QD)): > 40%
weight loss ([1]; Cohorts 1-3, dose dependent trend): up to 2 kg

CCCCCCCCCCCCCCCC(=O)N[C@@H](CCC(=O)NCCCC[C@H](NC(=O)[C@H](CCCCN)NC(=O)[C@H](CO)NC(=O)[C@H](Cc1ccc(O)cc1)NC(=O)[C@H](CC(=O)O)NC(=O)[C@H](CO)NC(=O)[C@@H](NC(=O)[C@H](Cc1ccccc1)NC(=O)[C@@H](NC(=O)CNC(=O)[C@H](CCC(N)=O)NC(=O)[C@H](CO)NC(=O)[C@@H](N)Cc1c[nH]cn1)[C@@H](C)O)[C@@H](C)O)C(=O)N[C@@H](CC(C)C)C(=O)N[C@@H](CC(=O)O)C(=O)N[C@@H](CO)C(=O)N[C@@H](CCC(=O)O)C(=O)N[C@@H](CCCNC(=N)N)C(=O)N[C@@H](C)C(=O)N[C@@H](CCCNC(=N)N)C(=O)N[C@@H](CC(=O)O)C(=O)N[C@@H](Cc1ccccc1)C(=O)N[C@H](C(=O)N[C@@H](C)C(=O)N[C@@H](Cc1c[nH]c2ccccc12)C(=O)N[C@@H](CC(C)C)C(=O)N[C@H](C(=O)N[C@@H](C)C(=O)NCC(=O)NCC(N)=O)C(C)C)C(C)C)C(=O)O [Peptide G730] (H-HSQGTFTSDYSKK([γGlu-Palmitoyl])LDSERARDFVAWLVAGG-NH2; N-terminus assumed)
% +1 prod [2]: <1%
% DPP cleaved product/+1 DPP cleaved product [2]: <1%
remaining at 24 h, 2 μmol/L ([2]; human, plasma): 100%
